Data from patent USRE46943E1, “Radioprotector compounds and methods” (PETER MACCALLUM CANCER INSTITUTE, priority 2010, dated 2018).

System: transformed human keratinocyte cell line (FEP 1811)
Assay: Clonogenic survival cell culture assay for radioprotective activity (12 Gy 137Cs gamma irradiation)
Type: cell-based
Conditions: 12 Gy; for DMF10 (dose modification factor at a concentration of 10 microM of radioprotector): 10 microM radioprotector; for DMFm (dose modification factor at maximum protection): DMF=Dp/Dc at survival level Sm; for PF (protection factor = Sm/So): survival at maximum protection vs irradiation only
Summary of the method: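 Survival after irradiation gave protection factor PF = Sm/So (maximum-protection survival over irradiation-only survival). DMF = Dp/Dc is the ratio of doses giving survival Sm with and without radioprotector. DMF10 uses survival at 10 microM radioprotector in place of Sm.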

Structure (SMILES) | DMF10 (dose modification factor at a concentration of 10 microM of radioprotector) | DMFm (dose modification factor at maximum protection) | PF (protection factor = Sm/So)
CN1CCN(c2ccc3nc(-c4ccc5nc(-c6ccccn6)[nH]c5c4)[nH]c3c2)CC1 [Example 2, 2-(5′-(5″-(4′″-Methylpiperazin-1′″-yl)benzimidazol-2″-yl)benzimidazol-2′-yl)pyridine] | 1.93 | 2.10 | 18.2
Cc1ccc(-c2nc3ccc(-c4nc5ccc(N6CCN(C)CC6)cc5[nH]4)cc3[nH]2)nc1 [Example 6, 5-Methyl-2-(5′-(5″-(4′″-methylpiperazin-1′″-yl)benzimidazol-2″-yl)benzimidazol-2′-yl)pyridine] | 2.43 | 2.52 | 26.2
c1ccc(-c2nc3ccc(-c4nc5ccc(N6CCOCC6)cc5[nH]4)cc3[nH]2)nc1 [Example 19, 2-(5′-(5″-Morpholinobenzimidazol-2″-yl)benzimidazol-2′-yl)pyridine] | 1.66 | 2.26 | 69.6
OC1CCN(c2ccc3nc(-c4ccc5nc(-c6cc7ccccc7cn6)[nH]c5c4)[nH]c3c2)CC1 [Example 23, 3-(5′-(5″-(4′″-Hydroxypiperidin-1′″-yl)benzimidazol-2″-yl)benzimidazol-2′-yl)isoquinoline] | 2.13 | 2.26 | 36.5
